Source: US8642585B2, “Indanyloxydihydrobenzofuranylacetic acids” (Boehringer Ingelheim International GmbH, priority 2012, dated 2014)

Biological target: human GPR40 receptor (Homo sapiens, UniProt O14842)
Assay: Assay II: IP1 accumulation (IPOne HTRF) in 1321N1 cells stably expressing human GPR40
Assay type: cell-based
Conditions: 1321N1 cells expressing human GPR40, stimulation 1 h at 37° C., 5% CO2, LiCl 50 mM
Method in brief: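 1321N1 cells stably expressing human GPR40, seeded 24 h earlier, were stimulated with compound for 1 h at 37 °C in LiCl (50 mM) buffer, pH 7.4. IP1 measured by HTRF (665/615 ratio) after lysis and 1 h room temperature; pEC50 via IP1 reference curve and variable-slope sigmoidal fit.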

Sequence of human GPR40 receptor (O14842 whole entry): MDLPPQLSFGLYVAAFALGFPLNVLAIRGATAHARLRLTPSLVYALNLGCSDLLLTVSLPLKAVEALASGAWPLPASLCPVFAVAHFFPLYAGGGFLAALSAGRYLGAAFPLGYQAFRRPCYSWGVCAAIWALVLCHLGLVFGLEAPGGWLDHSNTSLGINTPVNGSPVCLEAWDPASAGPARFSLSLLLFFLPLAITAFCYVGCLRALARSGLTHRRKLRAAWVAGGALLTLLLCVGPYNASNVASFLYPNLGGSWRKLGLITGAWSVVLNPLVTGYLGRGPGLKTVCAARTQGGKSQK

SMILES	EC50 [nM]
O=C(O)C[C@@H]1COc2cc(O[C@@H]3CCc4c(-c5cccnc5-c5ccoc5)ccc(F)c43)ccc21 [Example 105, {(S)-6-[(R)-7-Fluoro-4-(2-furan-3-yl-pyridin-3-yl)-indan-1-yloxy]-2,3-dihydro-benzofuran-3-yl}-acetic acid]	582
O=C(O)C[C@@H]1COc2cc(O[C@@H]3CCc4c(-c5cccnc5-c5ccccc5)ccc(F)c43)ccc21 [Example 106, {(S)-6-[(R)-7-Fluoro-4-(2-phenyl-pyridin-3-yl)-indan-1-yloxy]-2,3-dihydro-benzofuran-3-yl}-acetic acid]	59
Cc1cc(-c2cc(C)c(-c3ccc(F)c4c3CC[C@H]4Oc3ccc4c(c3)OC[C@H]4CC(=O)O)c(C)c2)ccn1 [Example 107, {(S)-6-[(R)-4-(2,6-Dimethyl-4-(2-methyl-pyridin-4-yl)-phenyl)-7-fluoro-indan-1-yloxy]-2,3-dihydro-benzofuran-3-yl}-acetic acid]	4
Cc1nn(C)c(C)c1-c1ncccc1-c1ccc(F)c2c1CC[C@H]2Oc1ccc2c(c1)OC[C@H]2CC(=O)O [Example 108, {(S)-6-[(R)-7-Fluoro-4-[2-(1,3,5-trimethyl-pyrazol-4-yl)-pyridin-3-yl]-indan-1-yloxy]-2,3-dihydro-benzofuran-3-yl}-acetic acid]	> 10000
Cc1cc(-c2c(C)nn(C)c2C)cc(C)c1-c1ccc(F)c2c1CC[C@H]2Oc1ccc2c(c1)OC[C@H]2CC(=O)O [Example 109, {(S)-6-[(R)-4-(2,6-Dimethyl-4-(1,3,5-trimethyl-pyrazol-4-yl)-phenyl)-7-fluoro-indan-1-yloxy]-2,3-dihydro-benzofuran-3-yl}-acetic acid]	8
O=C(O)C[C@@H]1COc2cc(O[C@@H]3CCc4c(-c5cccnc5C5CCOCC5)ccc(F)c43)ccc21 [Example 110, {(S)-6-[(R)-7-Fluoro-4-(2-tetrahydropyran-4-yl-pyridin-3-yl)-indan-1-yloxy]-2,3-dihydro-benzofuran-3-yl}-acetic acid]	351
Cc1cncc(-c2cc(C)c(-c3ccc(F)c4c3CC[C@H]4Oc3ccc4c(c3)OC[C@H]4CC(=O)O)c(C)c2)c1 [Example 111, {(S)-6-[(R)-4-(2,6-Dimethyl-4-(5-methyl-pyridin-3-yl)-phenyl)-7-fluoro-indan-1-yloxy]-2,3-dihydro-benzofuran-3-yl}-acetic acid]	4
Cc1cc(-c2cccnc2)cc(C)c1-c1ccc(F)c2c1CC[C@H]2Oc1ccc2c(c1)OC[C@H]2CC(=O)O [Example 112, {(S)-6-[(R)-4-(2,6-Dimethyl-4-pyridin-3-yl-phenyl)-7-fluoro-indan-1-yloxy]-2,3-dihydro-benzofuran-3-yl}-acetic acid]	5
Cc1cnc(-c2cc(C)c(-c3ccc(F)c4c3CC[C@H]4Oc3ccc4c(c3)OC[C@H]4CC(=O)O)c(C)c2)nc1 [Example 113, {(S)-6-[(R)-4-(2,6-Dimethyl-4-(5-methyl-pyrimidin-2-yl)-phenyl)-7-fluoro-indan-1-yloxy]-2,3-dihydro-benzofuran-3-yl}-acetic acid]	1
Cc1cnc(-c2cc(C)c(-c3ccc(F)c4c3CC[C@H]4Oc3ccc4c(c3)OC[C@H]4CC(=O)O)c(C)c2)cn1 [Example 114, {(S)-6-[(R)-4-(2,6-Dimethyl-4-(5-methyl-pyrazin-2-yl)-phenyl)-7-fluoro-indan-1-yloxy]-2,3-dihydro-benzofuran-3-yl}-acetic acid]	2
Cc1cc(-c2cc(C)c(-c3ccc(F)c4c3CC[C@H]4Oc3ccc4c(c3)OC[C@H]4CC(=O)O)c(C)c2)nc(C)n1 [Example 115, {(S)-6-[(R)-4-(2,6-Dimethyl-4-(2,6-dimethyl-pyrimidin-4-yl)-phenyl)-7-fluoro-indan-1-yloxy]-2,3-dihydro-benzofuran-3-yl}-acetic acid]	2
COc1cc(-c2cc(C)c(-c3ccc(F)c4c3CC[C@H]4Oc3ccc4c(c3)OC[C@H]4CC(=O)O)c(C)c2)ccn1 [Example 116, {(S)-6-[(R)-4-(2,6-Dimethyl-4-(2-methoxy-pyridin-4-yl)-phenyl)-7-fluoro-indan-1-yloxy]-2,3-dihydro-benzofuran-3-yl}-acetic acid]	3
Cc1ccc(-c2cc(C)c(-c3ccc(F)c4c3CC[C@H]4Oc3ccc4c(c3)OC[C@H]4CC(=O)O)c(C)c2)cn1 [Example 117, {(S)-6-[(R)-4-(2,6-Dimethyl-4-(6-methyl-pyridin-3-yl)-phenyl)-7-fluoro-indan-1-yloxy]-2,3-dihydro-benzofuran-3-yl}-acetic acid]	2
Cc1cncc(-c2cc(C)c(-c3ccc(F)c4c3CC[C@H]4Oc3ccc4c(c3)OC[C@H]4CC(=O)O)c(C)c2)n1 [Example 118, {(S)-6-[(R)-4-(2,6-Dimethyl-4-(6-methyl-pyrazin-2-yl)-phenyl)-7-fluoro-indan-1-yloxy]-2,3-dihydro-benzofuran-3-yl}-acetic acid]	2
Cc1ccnc(-c2cc(C)c(-c3ccc(F)c4c3CC[C@H]4Oc3ccc4c(c3)OC[C@H]4CC(=O)O)c(C)c2)n1 [Example 119, {(S)-6-[(R)-4-(2,6-Dimethyl-4-(4-methyl-pyrimidin-2-yl)-phenyl)-7-fluoro-indan-1-yloxy]-2,3-dihydro-benzofuran-3-yl}-acetic acid]	1
Cc1ccc(-c2cc(C)c(-c3ccc(F)c4c3CC[C@H]4Oc3ccc4c(c3)OC[C@H]4CC(=O)O)c(C)c2)nn1 [Example 120, {(S)-6-[(R)-4-(2,6-Dimethyl-4-(6-methyl-pyridazin-3-yl)-phenyl)-7-fluoro-indan-1-yloxy]-2,3-dihydro-benzofuran-3-yl}-acetic acid]	2
Cc1cc(-c2cc(C)c(-c3ccc(F)c4c3CC[C@H]4Oc3ccc4c(c3)OC[C@H]4CC(=O)O)c(C)c2)cc(C)n1 [Example 121, {(S)-6-[(R)-4-(2,6-Dimethyl-4-(2,6-dimethyl-pyridin-4-yl)-phenyl)-7-fluoro-indan-1-yloxy]-2,3-dihydro-benzofuran-3-yl}-acetic acid]	2
Cc1cc(-c2cnccn2)cc(C)c1-c1ccc(F)c2c1CC[C@H]2Oc1ccc2c(c1)OC[C@H]2CC(=O)O [Example 122, {(S)-6-[(R)-4-(2,6-Dimethyl-4-pyrazin-2-yl-phenyl)-7-fluoro-indan-1-yloxy]-2,3-dihydro-benzofuran-3-yl}-acetic acid]	2
Cc1cc(-c2cnc(C3CC3)cn2)cc(C)c1-c1ccc(F)c2c1CC[C@H]2Oc1ccc2c(c1)OC[C@H]2CC(=O)O [Example 123, {(S)-6-[(R)-4-(2,6-Dimethyl-4-(5-cyclopropyl-pyrazin-2-yl)-phenyl)-7-fluoro-indan-1-yloxy]-2,3-dihydro-benzofuran-3-yl}-acetic acid]	7
Cc1cccc(C)c1-c1ncccc1-c1ccc(F)c2c1CC[C@H]2Oc1ccc2c(c1)OC[C@H]2CC(=O)O [Example 124, {(S)-6-[(R)-4-(2-(2,6-Dimethyl-phenyl)-pyridin-3-yl)-7-fluoro-indan-1-yloxy]-2,3-dihydro-benzofuran-3-yl}-acetic acid]	339
CCc1ccc(-c2cc(C)c(-c3ccc(F)c4c3CC[C@H]4Oc3ccc4c(c3)OC[C@H]4CC(=O)O)c(C)c2)nn1 [Example 125, {(S)-6-[(R)-4-(2,6-Dimethyl-4-(6-ethyl-pyridazin-3-yl)-phenyl)-7-fluoro-indan-1-yloxy]-2,3-dihydro-benzofuran-3-yl}-acetic acid]	4
COc1ccc(-c2cc(C)c(-c3ccc(F)c4c3CC[C@H]4Oc3ccc4c(c3)OC[C@H]4CC(=O)O)c(C)c2)cn1 [Example 126, {(S)-6-[(R)-4-(2,6-Dimethyl-4-(6-methoxy-pyridin-3-yl)-phenyl)-7-fluoro-indan-1-yloxy]-2,3-dihydro-benzofuran-3-yl}-acetic acid]	6
O=C(O)C[C@@H]1COc2cc(O[C@@H]3CCc4c(-c5cccnc5N5CCCOCC5)ccc(F)c43)ccc21 [Example 127, {(S)-6-[(R)-7-Fluoro-4-(2-[1,4]oxazepan-4-yl-pyridin-3-yl)-indan-1-yloxy]-2,3-dihydro-benzofuran-3-yl}-acetic acid]	48
O=C(O)C[C@@H]1COc2cc(O[C@@H]3CCc4c(-c5cccnc5N5CCOCC5)ccc(F)c43)ccc21 [Example 128, {(S)-6-[(R)-7-Fluoro-4-(2-morpholin-4-yl-pyridin-3-yl)-indan-1-yloxy]-2,3-dihydro-benzofuran-3-yl}-acetic acid]	288
COc1cnnc(-c2cc(C)c(-c3ccc(F)c4c3CC[C@H]4Oc3ccc4c(c3)OC[C@H]4CC(=O)O)c(C)c2)c1 [Example 129, {(S)-6-[(R)-4-(2,6-Dimethyl-4-(5-methoxy-pyridazin-3-yl)-phenyl)-7-fluoro-indan-1-yloxy]-2,3-dihydro-benzofuran-3-yl}-acetic acid]	4
Cc1cc(-c2cc(C)c(-c3ccc(F)c4c3CC[C@H]4Oc3ccc4c(c3)OC[C@H]4CC(=O)O)c(C)c2)cnn1 [Example 130, {(S)-6-[(R)-4-(2,6-Dimethyl-4-(6-methyl-pyridazin-4-yl)-phenyl)-7-fluoro-indan-1-yloxy]-2,3-dihydro-benzofuran-3-yl}-acetic acid]	5
Cc1cc(-c2cn(C)c(C)n2)cc(C)c1-c1ccc(F)c2c1CC[C@H]2Oc1ccc2c(c1)OC[C@H]2CC(=O)O [Example 131, {(S)-6-[(R)-4-(2,6-Dimethyl-4-(1,2-dimethyl-imidazol-4-yl)-phenyl)-7-fluoro-indan-1-yloxy]-2,3-dihydro-benzofuran-3-yl}-acetic acid]	2
Cc1cc(-c2nccs2)cc(C)c1-c1ccc(F)c2c1CC[C@H]2Oc1ccc2c(c1)OC[C@H]2CC(=O)O [Example 132, {(S)-6-[(R)-4-(2,6-Dimethyl-4-thiazol-2-yl-phenyl)-7-fluoro-indan-1-yloxy]-2,3-dihydro-benzofuran-3-yl}-acetic acid]	2
Cc1cc(-c2cn(C)cn2)cc(C)c1-c1ccc(F)c2c1CC[C@H]2Oc1ccc2c(c1)OC[C@H]2CC(=O)O [Example 133, {(S)-6-[(R)-4-(2,6-Dimethyl-4-(1-methyl-imidazol-4-yl)-phenyl)-7-fluoro-indan-1-yloxy]-2,3-dihydro-benzofuran-3-yl}-acetic acid]	2
